Results: patent publication US11207296B2, “XPA inhibitor compounds and their use” (INDIANA UNIVERSITY RESEARCH AND TECHNOLOGY CORPORATION, priority 2017, dated 2021)
Where “and” joins values, the source holds several entries; their conditions need not be identical. Equal values may be shown once.
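Further: XPA expressed in Sf9 cells, preincubated with compound on ice before adding DNA, complex resolved on native polyacrylamide gel at 4 °C, PhosphorImager band intensity, binding inhibition versus DMSO.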

What follows are molecules tested against full length XPA protein (Homo sapiens, UniProt P23025) (assay: biochemical). Settings: IC50 (μM), EMSA, 32P labeled 30 bp duplex DNA containing a single 1,2 dGpG cisplatin adduct, several values in a cell = separate determinations.
full length XPA protein, sequence (P23025 whole entry): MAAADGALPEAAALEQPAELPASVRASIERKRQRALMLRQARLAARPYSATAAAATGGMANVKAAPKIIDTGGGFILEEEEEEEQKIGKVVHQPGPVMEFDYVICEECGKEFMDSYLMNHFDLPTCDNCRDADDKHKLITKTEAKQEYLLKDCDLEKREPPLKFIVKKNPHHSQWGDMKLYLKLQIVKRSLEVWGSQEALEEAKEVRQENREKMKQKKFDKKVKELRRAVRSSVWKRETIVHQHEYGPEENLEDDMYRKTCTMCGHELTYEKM
Description: Purified XPA (lanes 2-18) was mixed with DMSO (Lane 2, C) control or the indicated compound at a concentration of 50 μM (Lanes 3-18). ^32P labeled ds-platinum damaged DNA was added and incubation continued for 30 minutes on ice. The products were separated on a 6% native gel by electrophoresis at 4° C. Products were detected and quantified by PhosphorImager analysis.
EMSA was carried out using previously described procedure with the following modification. Reactions were performed in volume of 20 μL, containing a ^32P labeled 30 bp duplex DNA containing a single 1,2 dGpG cisplatin adduct. Compounds were pre-incubated on ice with the indicated amount of XPA and products separated by electrophoresis on a non-denaturing 6% polyacrylamide gel. Gels were cooled, loaded and electrophoresis performed at 4° C. Gels were used to expose a Phosphorlmager screen and band intensity determined and % binding and inhibition calculated as we have previously described.
`CC1=NN(c2ccc(C(=O)O)cc2)C(=O)/C1=C\c1ccc(-c2ccc(Cl)c(C(=O)O)c2)s1` [NG-03-234, (Z)-5-(5-((1-(4-Carboxyphenyl)-3-methyl-5-oxo-1,5-dihydro-4H-pyrazol-4-ylidene)methyl)thiophen-2-yl)-2-chlorobenzoic acid] gave an IC50 of 12 µM.
`COc1ccc(NC(=O)c2cc(-c3ccc(CC4C(=O)N(c5cccc(C(=O)O)c5)N=C4C)o3)ccc2Cl)cc1OC` (centres unmarked) [NG-03-206, 3-(4-((5-(4-Chloro-3-((3,4-dimethoxyphenyl)carbamoyl)phenyl)furan-2-yl)methyl)-3-methyl-5-oxo-4,5-dihydro-1H-pyrazol-1-yl)benzoic acid] was tested, and the IC50 was 11 µM.
For `CCOC(=O)c1cccc(N2N=C(C(F)(F)F)/C(=C/c3ccc(-c4ccc(Cl)c(C(=O)O)c4)o3)C2=O)c1` [NG-04-300, 2-chloro-5-(5-((1-(3-(ethoxycarbonyl)phenyl)-5-oxo-3-(trifluoromethyl)-1,5-dihydro-4H-pyrazol-4-ylidene)methyl)furan-2-yl)benzoic acid], the IC50 was 40 µM.
With `CCOC(=O)c1cccc(N2N=C(C(F)(F)F)C(=Cc3ccc(-c4ccc(Cl)c(C(=O)Nc5cccc(OC)c5)c4)o3)C2=O)c1` (mixture of isomers) [NG-04-311, ethyl 3-(4-((5-(4-chloro-3-((3-methoxyphenyl)carbamoyl)phenyl)furan-2-yl)methylene)-5-oxo-3-(trifluoromethyl)-4,5-dihydro-1H-pyrazol-1-yl)benzoate] the IC50 was greater than 50 µM.
`COc1cccc(CNC(=O)c2cc(-c3ccc(/C=C4\C(=O)N(c5ccc(C(=O)O)cc5)N=C4C)o3)ccc2Cl)c1` [NG-03-286, (Z)-4-(4-((5-(4-Chloro-3-((3-methoxybenzyl)carbamoyl)phenyl)furan-2-yl)methylene)-3-methyl-5-oxo-4,5-dihydro-1H-pyrazol-1-yl)benzoic acid] was tested, and the IC50 was 38 µM.
`CC1=NN(c2cccc(C(=O)O)c2)C(=O)/C1=C\c1ccc(-c2ccc(Cl)c(C(=O)COc3ccccc3Cl)c2)o1` [Compound 2249] gave an IC50 of 2.5 µM.
For `CC1=NN(c2ccc(C(=O)O)cc2)C(=O)C1Cc1ccc(-c2ccc(Cl)c(C(=O)NCc3ccc(F)cc3)c2)o1` (centres unmarked) [NG-02-151, 4-(4-((5-(4-Chloro-3-((4-fluorobenzyl)carbamoyl)phenyl)furan-2-yl)methyl)-3-methyl-5-oxo-4,5-dihydro-1H-pyrazol-1-yl)benzoic acid], the IC50 was 15 µM and 35 µM.
With `COc1cccc(CNC(=O)c2cc(-c3ccc(CC4C(=O)N(c5ccc(C(=O)O)cc5)N=C4C)o3)ccc2Cl)c1` (centres unmarked) [NG-04-294, 4-(4-((5-(4-chloro-3-((3-methoxybenzyl)carbamoyl)phenyl)furan-2-yl)methyl)-3-methyl-5-oxo-4,5-dihydro-1H-pyrazol-1-yl)benzoic acid] the IC50 was 40 µM.
For `COc1cccc(NC(=O)c2ccc(/C=C3\C(=O)N(c4cccc(C(=O)O)c4)N=C3C)o2)c1` [NG-02-162/ NG-02-162C, (Z)-3-(4-((5-((3-methoxyphenyl)carbamoyl)furan-2-yl)methylene)-3-methyl-5-oxo-4,5-dihydro-1H-pyrazol-1-yl)benzoic acid], the IC50 was 35 µM.
For `O=C(O)c1cccc(N2N=C(C(F)(F)F)/C(=C/c3ccc(-c4ccc(Cl)c(C(=O)NCC5CC5)c4)o3)C2=O)c1` [NG-04-304, 3-(4-((5-(4-chloro-3-((cyclopropylmethyl)carbamoyl)phenyl)furan-2-yl)methylene)-5-oxo-3-(trifluoromethyl)-4,5-dihydro-1H-pyrazol-1-yl)benzoic acid], the IC50 was greater than 50 µM.
Work on `CCOC(=O)c1cccc(N2N=C(C)C(=Cc3ccc(C(=O)O)o3)C2=O)c1` [NG-02-154, 5-((1-(3-(ethoxycarbonyl)phenyl)-3-methyl-5-oxo-1,5-dihydro-4H-pyrazol-4-ylidene)methyl)furan-2-carboxylic acid] yielded an IC50 of 45 µM.
Molecule `COc1cccc(NC(=O)c2cc(-c3ccc(/C=C4\C(=O)N(c5ccc(C(=O)O)cc5)N=C4C)s3)ccc2Cl)c1` [NG-03-236, (Z)-4-(4-((5-(4-Chloro-3-((3-methoxyphenyl)carbamoyl)phenyl)thiophen-2-yl)methylene)-3-methyl-5-oxo-4,5-dihydro-1H-pyrazol-1-yl)benzoic acid] has an IC50 of 12 µM.
For `CCOC(=O)c1cccc(N2N=C(C)/C(=C/c3ccc(-c4ccc(Cl)c(C(=O)O)c4)o3)C2=O)c1` [Compound 31a, (Z)-2-Chloro-5-(5-((1-(3-(ethoxycarbonyl)phenyl)-3-methyl-5-oxo-1H-pyrazol-4(5H)-ylidene)methyl)furan-2-yl)benzoic acid], the IC50 was greater than 25 µM.
In the case of `CC1=NN(c2cccc(C(=O)O)c2)C(=O)/C1=C\c1ccc(-c2ccc(Cl)c(C(=O)NC3CC3)c2)o1` [Compound 34f, (Z)-3-(4-((5-(4-Chloro-3-(cyclopropylcarbamoyl)phenyl)furan-2-yl)methylene)-3-methyl-5-oxo-4,5-dihydro-1H-pyrazol-1-yl)benzoic acid], the IC50 is reported as 32 µM.
In the case of `CC1=NN(c2cccc(C(=O)O)c2)C(=O)C1Cc1ccc(-c2ccc(Cl)c(C(=O)NCC3CC3)c2)s1` (centres unmarked) [NG-03-231, 3-(4-((5-(4-Chloro-3-((cyclopropylmethyl)carbamoyl)phenyl)thiophen-2-yl)methyl)-3-methyl-5-oxo-4,5-dihydro-1H-pyrazol-1-yl)benzoic acid], the IC50 is reported as 40 µM.
`CC1=NN(c2cccc(C(=O)O)c2)C(=O)/C1=C\c1ccc(-c2ccc(Cl)c(C(=O)NCc3ccccc3Cl)c2)o1` [NG-03-271, (Z)-3-(4-((5-(4-chloro-3-((2-chlorobenzyl)carbamoyl)phenyl)furan-2-yl)methylene)-3-methyl-5-oxo-4,5-dihydro-1H-pyrazol-1-yl)benzoic acid] was tested, and the IC50 was 40 µM.
In the case of `CC1=NN(c2cccc(C(=O)O)c2)C(=O)C1=Cc1ccc(-c2ccc(Cl)c(C(=O)NCC3CCCCC3)c2)o1` (mixture of isomers) [NG-04-274, 3-(4-((5-(4-chloro-3-((cyclohexylmethyl)carbamoyl)phenyl)furan-2-yl)methylene)-3-methyl-5-oxo-4,5-dihydro-1H-pyrazol-1-yl)benzoic acid], the IC50 is reported as 35 µM.
With `CC1=NN(c2cccc(C(=O)O)c2)C(=O)/C1=C\c1ccc(-c2cccc(C(=O)OC(C)C)c2)o1` [Compound 3125] the IC50 was 3 µM.
`CC1=NN(c2cccc(C(=O)O)c2)C(=O)C1Cc1ccc(-c2ccc(Cl)c(C(=O)NCC3CC3)c2)o1` (centres unmarked) [NG-01-72R, 3-(4-((5-(4-Chloro-3-((cyclopropylmethyl)carbamoyl)phenyl)furan-2-yl)methyl)-3-methyl-5-oxo-4,5-dihydro-1H-pyrazol-1-yl)benzoic acid] was tested, and the IC50 was 42 µM.
For `CC1=NN(c2cccc(C(=O)O)c2)C(=O)/C1=C\c1ccc(-c2ccc(Cl)c(C(=O)NCc3ccc(F)cc3)c2)s1` [NG-03-227, (Z)-3-(4-((5-(4-Chloro-3-((4-fluorobenzyl)carbamoyl)phenyl)thiophen-2-yl)methylene)-3-methyl-5-oxo-4,5-dihydro-1H-pyrazol-1-yl)benzoic acid], the IC50 was 7 µM.
`CC1=NN(c2cccc(C(=O)O)c2)C(=O)/C1=C\c1ccc(-c2ccc(Cl)c(C(=O)O)c2)s1` [NG-03-224, (Z)-5-(5-((1-(3-Carboxyphenyl)-3-methyl-5-oxo-1,5-dihydro-4H-pyrazol-4-ylidene)methyl)thiophen-2-yl)-2-chlorobenzoic acid] was tested, and the IC50 was 30 µM.
For `COc1cccc(NC(=O)c2cc(-c3ccc(CC4C(=O)N(c5cccc(C(=O)O)c5)N=C4C(F)(F)F)o3)ccc2Cl)c1` (centres unmarked) [NG-04-322, 3-(4-((5-(4-chloro-3-((3-methoxyphenyl)carbamoyl)phenyl)furan-2-yl)methyl)-5-oxo-3-(trifluoromethyl)-4,5-dihydro-1H-pyrazol-1-yl)benzoic acid], the IC50 was 30 µM.
`O=C(O)c1cccc(N2N=C(C(F)(F)F)/C(=C/c3ccc(-c4ccc(Cl)c(C(=O)O)c4)o3)C2=O)c1` [NG-04-314, 5-(5-((1-(3-carboxyphenyl)-5-oxo-3-(trifluoromethyl)-1,5-dihydro-4H-pyrazol-4-ylidene)methyl)furan-2-yl)-2-chlorobenzoic acid] gave an IC50 of 15 µM.
`COc1cccc(NC(=O)c2cc(-c3ccc(/C=C4\C(=O)N(c5cccc(C#N)c5)N=C4C)o3)ccc2Cl)c1` [NG-03-193, (Z)-2-chloro-5-(5-((1-(3-cyanophenyl)-3-methyl-5-oxo-1,5-dihydro-4H-pyrazol-4-ylidene)methyl)furan-2-yl)-N-(3-methoxyphenyl)benzamide] was tested, and the IC50 was greater than 25 µM.
`COc1cccc(NC(=O)c2cc(-c3ccc(/C=C4\C(=O)N(c5cccc(C(=O)O)c5)N=C4C)s3)ccc2Cl)c1` [NG-03-203, (Z)-3-(4-((5-(4-chloro-3-((3-methoxyphenyl)carbamoyl)phenyl)thiophen-2-yl)methylene)-3-methyl-5-oxo-4,5-dihydro-1H-pyrazol-1-yl)benzoic acid] was tested, and the IC50 was 3 µM and 7.5 µM and 11 µM.
Molecule `CCOC(=O)c1cccc(N2N=C(C)/C(=C/c3ccc(-c4ccc(Cl)c(C(=O)NCc5ccc(F)cc5)c4)o3)C2=O)c1` [Compound 33a, (Z)-Ethyl 3-(4-((5-(4-chloro-3-((4-fluorobenzyl)carbamoyl)phenyl)furan-2-yl)methylene)-3-methyl-5-oxo-4,5-dihydro-1H-pyrazol-1-yl)benzoate] has an IC50 greater than 25 µM.
`CC1=NN(c2cccc(C(=O)O)c2)C(=O)/C1=C\c1ccc(-c2ccc(Cl)c(C(=O)NCc3ccccc3)c2)o1` [NG-03-270, (Z)-3-(4-((5-(3-(Benzylcarbamoyl)-4-chlorophenyl)furan-2-yl)methylene)-3-methyl-5-oxo-4,5-dihydro-1H-pyrazol-1-yl)benzoic acid] showed an IC50 of 36 µM.
For `CC1=NN(c2cccc(C(=O)O)c2)C(=O)C1Cc1ccc(-c2ccc(Cl)c(C(=O)NCc3ccc(F)cc3)c2)o1` (centres unmarked) [NG-01-65, 3-(4-((5-(4-Chloro-3-((4-fluorobenzyl)carbamoyl)phenyl)furan-2-yl)methyl)-3-methyl-5-oxo-4,5-dihydro-1H-pyrazol-1-yl)benzoic acid], the IC50 was greater than 25 µM.
In the case of `COc1cccc(NC(=O)c2cc(-c3ccc(/C=C4\C(=O)N(c5cccc(C(=O)O)c5)N=C4C(F)(F)F)o3)ccc2Cl)c1` [NG-04-312, 3-(4-((5-(4-chloro-3-((3-methoxyphenyl)carbamoyl)phenyl)furan-2-yl)methylene)-5-oxo-3-(trifluoromethyl)-4,5-dihydro-1H-pyrazol-1-yl)benzoic acid], the IC50 is reported as greater than 50 µM.
